Source: patent US10047051B2, “Substituted pyridines and method of use” (AbbVie S.á{acute over (.)}r.l., priority 2015, dated 2018)

Columns and labels:
Assay type in all cases: cell-based
CFTR G551D/ΔF508 = biological target: T1, CFTR G551D/ΔF508 (Homo sapiens, UniProt P13569, G551D); assay: TECC assay, primary bronchial epithelial cells, CFTR G551D/ΔF508; conditions: primary bronchial epithelial cells heterozygous G551D/ΔF508, acute mode, increase in Isc after forskolin
T1 construct: host or cells: primary human bronchial epithelial cells from CF patients heterozygous G551D/ΔF508, no corrector pre-treatment
T1 sequence (P13569 whole entry F508del/G551D): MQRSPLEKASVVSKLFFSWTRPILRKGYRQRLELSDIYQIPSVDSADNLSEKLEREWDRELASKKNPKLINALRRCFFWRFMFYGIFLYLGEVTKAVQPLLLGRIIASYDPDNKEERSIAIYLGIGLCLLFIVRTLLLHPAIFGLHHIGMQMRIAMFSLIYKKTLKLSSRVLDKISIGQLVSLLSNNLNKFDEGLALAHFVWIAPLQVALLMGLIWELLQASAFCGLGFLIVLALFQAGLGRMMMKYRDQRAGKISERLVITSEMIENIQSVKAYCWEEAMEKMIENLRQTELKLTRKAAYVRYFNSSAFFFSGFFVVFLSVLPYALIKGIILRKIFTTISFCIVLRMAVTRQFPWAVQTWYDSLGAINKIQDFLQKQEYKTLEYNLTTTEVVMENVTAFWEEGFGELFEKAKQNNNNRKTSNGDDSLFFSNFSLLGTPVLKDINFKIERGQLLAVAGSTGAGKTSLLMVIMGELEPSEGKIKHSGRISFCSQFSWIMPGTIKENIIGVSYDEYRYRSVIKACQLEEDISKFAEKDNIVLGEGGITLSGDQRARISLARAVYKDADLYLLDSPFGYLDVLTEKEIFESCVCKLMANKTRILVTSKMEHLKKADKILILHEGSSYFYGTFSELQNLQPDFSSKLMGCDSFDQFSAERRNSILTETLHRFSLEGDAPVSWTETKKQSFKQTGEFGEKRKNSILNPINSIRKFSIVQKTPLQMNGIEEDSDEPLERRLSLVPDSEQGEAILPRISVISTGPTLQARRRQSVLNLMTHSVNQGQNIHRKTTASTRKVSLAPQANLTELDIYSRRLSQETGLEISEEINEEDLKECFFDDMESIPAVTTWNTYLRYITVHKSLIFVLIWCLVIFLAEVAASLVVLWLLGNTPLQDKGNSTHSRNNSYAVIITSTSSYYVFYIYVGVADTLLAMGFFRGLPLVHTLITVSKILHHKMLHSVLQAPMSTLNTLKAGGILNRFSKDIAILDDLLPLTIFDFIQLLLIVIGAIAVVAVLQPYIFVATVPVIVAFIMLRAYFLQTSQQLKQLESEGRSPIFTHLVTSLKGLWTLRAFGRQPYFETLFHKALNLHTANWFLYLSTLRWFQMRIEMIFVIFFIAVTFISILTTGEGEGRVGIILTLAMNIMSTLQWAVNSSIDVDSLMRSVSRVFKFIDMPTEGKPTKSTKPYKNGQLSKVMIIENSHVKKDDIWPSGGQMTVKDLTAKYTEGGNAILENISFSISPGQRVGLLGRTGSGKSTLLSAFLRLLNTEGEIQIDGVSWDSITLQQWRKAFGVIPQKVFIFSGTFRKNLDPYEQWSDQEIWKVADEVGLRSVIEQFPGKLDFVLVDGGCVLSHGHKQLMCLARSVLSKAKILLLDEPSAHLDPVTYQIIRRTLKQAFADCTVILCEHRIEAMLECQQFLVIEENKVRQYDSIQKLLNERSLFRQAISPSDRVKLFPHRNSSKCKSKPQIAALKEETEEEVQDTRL
Description: The TECC (Tranepithelial Clamp Circuit, EP-design) assay measures the functionality of the cystic fibrosis Transmembrane Conductance regulator (CFTR) by measuring the short circuit current (Isc) generated over the basolateral and apical membrane of lung epithelial cells. In TECC the transepithelial potential PD and transepithelial resistance (Rt) are measured in an open circuit and transformed to Isc using Ohm's law. 24 Wells can be measured simultaneously allowing a higher throughput compared to Ussing chambers.
For this purpose, bronchial epithelial cells isolated from CF patients homozygous for the CFTR ΔF508 mutation (hAEC-CF, Epithelix) are plated on type IV collagen-coated Transwell® supports (Costar). Human airway epithelia are generated by provision of an air-liquid interface for 21 days to form well-differentiated polarized cultures that resemble in vivo pseudo-stratified ciliated epithelium (Fulcher, M. L., Gabriel, S., Burns, K. A., Yankaskas, J. R., Randell, S. H., 2005. Well-differentiated human airway epithelial cell cultures. Methods Mol. Med. 107, 183-206). In the case of the homozygous ΔF508 CFTR samples, the differentiated cells are treated with 3 μM VX809 (2626 South Loop West, Suite 225, Houston, Tex. 77054 USA, Cat n# S1565) to allow sufficient expression of properly folded CFTR protein on the membrane (48 hours basolateral treatment and 24 hours apical treatment), prior to electrophysiological recordings. For heterozygous G551D/ΔF508, differentiated cells are used as such for the recordings.
Information on the compounds can be retrieved on the homozygous ΔF508 CFTR samples looking at increased CFTR activity when compounds are added in an acute mode or in a chronic mode. On G551D/ΔF508 CFTR heterozygous samples compounds are added in an acute mode to the differentiated cells.
For the acute mode, for electrophysiological recording, the human airway epithelia are mounted in the TECC heating plate for electrophysiological measurement and kept at 37° C. The epithelia are bathed in a NaCl-Ringer solution (120 mM NaCl, 25 mM NaHCO3, 1.2 mM CaCl2, 1.2 mM MgCl2, 0.8 mM KH2PO4, 0.8 mM K2HPO4, pH 7.4, 5 mM glucose) on both the basolateral and apical sides. Apical amiloride is used to inhibit the endogenous ENaC currents while forkolin is applied on both apical and basolateral side to stimulate CFTR. After forskolin triggering, compounds are added on both sides to test their potential for increasing CFTR gating. Measurements are done during a 20 minute timeframe with recordings every 2 minutes. The increase in Isc is used as a measure for the increased CFTR activity, EC50 values can be generated by measuring impact of different concentrations of compound on Isc on primary cells, for this purpose each transwell is treated with a different compound concentration. Inh-172, an inhibitor specific for CFTR, is used to test the specificity of the tested compounds.
When subjected to this protocol, the following values were obtained. The difference between ΔIsc measured as DMSO (baseline), and the ΔIsc measured with the compound tested.

G551D CFTR = G551D CFTR (Homo sapiens, UniProt P13569, G551D); assay: TECC assay, FRT-CFTR G551D protocol; conditions: FRT cells stably transfected with G551D CFTR, high expression cells, increase in Isc after forskolin
G551D CFTR, sequence (P13569 whole entry G551D): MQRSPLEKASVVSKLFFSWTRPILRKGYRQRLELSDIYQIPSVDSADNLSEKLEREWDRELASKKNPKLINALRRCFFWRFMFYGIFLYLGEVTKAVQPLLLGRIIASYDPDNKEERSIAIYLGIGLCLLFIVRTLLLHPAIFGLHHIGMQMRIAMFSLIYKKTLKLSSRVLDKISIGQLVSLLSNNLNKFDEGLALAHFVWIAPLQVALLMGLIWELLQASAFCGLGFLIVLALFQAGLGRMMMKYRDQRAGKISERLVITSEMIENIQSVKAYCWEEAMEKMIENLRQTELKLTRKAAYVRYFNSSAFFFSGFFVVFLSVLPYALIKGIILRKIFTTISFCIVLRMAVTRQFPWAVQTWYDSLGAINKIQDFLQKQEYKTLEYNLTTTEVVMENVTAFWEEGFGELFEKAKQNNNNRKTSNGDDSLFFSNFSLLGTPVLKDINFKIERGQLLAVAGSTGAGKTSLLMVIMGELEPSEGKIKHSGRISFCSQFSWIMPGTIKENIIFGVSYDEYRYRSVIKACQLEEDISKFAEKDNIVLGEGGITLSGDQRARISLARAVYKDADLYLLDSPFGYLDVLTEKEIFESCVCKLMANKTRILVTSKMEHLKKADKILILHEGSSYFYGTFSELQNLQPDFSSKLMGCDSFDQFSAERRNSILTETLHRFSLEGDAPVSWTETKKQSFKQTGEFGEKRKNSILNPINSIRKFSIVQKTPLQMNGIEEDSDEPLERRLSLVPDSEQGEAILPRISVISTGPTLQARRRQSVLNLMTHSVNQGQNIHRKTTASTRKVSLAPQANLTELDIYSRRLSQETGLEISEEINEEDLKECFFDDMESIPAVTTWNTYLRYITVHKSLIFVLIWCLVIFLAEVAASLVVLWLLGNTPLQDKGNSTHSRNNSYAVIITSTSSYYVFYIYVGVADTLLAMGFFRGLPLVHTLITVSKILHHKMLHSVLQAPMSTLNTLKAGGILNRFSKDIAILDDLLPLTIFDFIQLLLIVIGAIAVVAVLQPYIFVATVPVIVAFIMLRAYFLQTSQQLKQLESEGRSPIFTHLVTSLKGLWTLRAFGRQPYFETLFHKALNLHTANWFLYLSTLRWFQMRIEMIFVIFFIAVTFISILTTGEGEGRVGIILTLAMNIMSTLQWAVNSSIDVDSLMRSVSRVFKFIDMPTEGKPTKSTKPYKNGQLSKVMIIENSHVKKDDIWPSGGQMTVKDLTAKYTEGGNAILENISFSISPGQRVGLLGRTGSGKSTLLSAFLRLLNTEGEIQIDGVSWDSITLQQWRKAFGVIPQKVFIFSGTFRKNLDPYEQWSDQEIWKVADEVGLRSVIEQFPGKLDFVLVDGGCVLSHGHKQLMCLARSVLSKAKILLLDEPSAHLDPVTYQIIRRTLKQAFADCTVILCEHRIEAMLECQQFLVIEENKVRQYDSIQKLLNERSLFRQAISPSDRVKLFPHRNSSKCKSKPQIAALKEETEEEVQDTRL
Description: For G551D recordings, Fischer Rat Thyroid (FRT) cells stably transfected with G551D CFTR (a low CFTR-G551D expressing cell line and a high expressing CFTR-G551D cell line from Rosalind Franklin University of Medicine and Science, North Chicago, Ill.) are plated on Transwell® supports (Costar 6.5 mm diameter, 0.4 μm pore size). The cells are grown for 8-10 days under liquid-liquid interface conditions prior to electrophysiological readings. For electrophysiological recording, the FRT-G551D cells are mounted in the TECC heating plate for electrophysiological measurement and kept at 37° C. The epithelia are bathed in HEPES buffered culturing medium without FBS on both the basolateral and apical sides. Apical amiloride is used to inhibit the endogenous ENaC currents while forkolin is applied on both apical and basolateral side to stimulate CFTR. After forskolin triggering, compounds are added on both sides to test their potential for increasing CFTR gating. Measurements are done during a 10 minute timeframe with recordings every 2 minutes. The increase in Isc is used as a measure for the increased CFTR activity, EC50 values can be generated by measuring impact of different concentrations of compound on Isc on the cells, for this purpose each transwell is treated with a different compound concentration. Inh-172, an inhibitor specific for CFTR, is used to test the specificity of the tested compounds.

ΔF508 CFTR = ΔF508 CFTR (Homo sapiens, UniProt P13569, DEL508-508); assay: TECC assay, FRT-CFTR ΔF508 protocol; conditions: FRT cells stably transfected with ΔF508 CFTR, 3 μM VX809 24 hours, increase in transepithelial conductance (Gt), high expression cells
ΔF508 CFTR, sequence (P13569 with tags, fused parts or gaps DEL508-508): as the sequence (P13569 whole entry F508del/G551D) above, with D550G counted along it
Description: For ΔF508 recordings, Fischer Rat Thyroid (FRT) cells stably transfected with ΔF508 CFTR (cell line from Rosalind Franklin University of Medicine and Science, North Chicago, Ill.) are plated on Transwell® supports (Costar 6.5 mm diameter, 0.4 μm pore size Cat n#3378). The cells are grown for 8-10 days under liquid-liquid interface conditions prior to electrophysiological readings. The differentiated cells are treated with 3 μM VX809 (2626 South Loop West, Suite 225, Houston, Tex. 77054 USA, Cat n# S1565) to allow sufficient expression of properly folded CFTR protein on the membrane (24 hours basolateral treatment), prior to electrophysiological recordings. For electrophysiological recording, the FRT-ΔF508 cells are mounted in the TECC heating plate for electrophysiological measurement and kept at 37° C. The epithelia are bathed in HEPES buffered culturing medium without FBS on both the basolateral and apical sides. Apical amiloride is used to inhibit the endogenous ENaC currents while forkolin is applied on both apical and basolateral side to stimulate CFTR. After forskolin triggering, compounds are added on both sides to test their potential for increasing CFTR gating. Measurements are done during a 10 minute timeframe with recordings every 2 minutes. The increase in transepithelial conductance (Gt) is used as a measure for the increased CFTR activity, EC50 values can be generated by measuring impact of different concentrations of compound on Gt of the cells, for this purpose each transwell is treated with a different compound concentration. Inh-172, an inhibitor specific for CFTR, is used to test the specificity of the tested compounds.

`Nc1cc(S(=O)(=O)c2ccc(OC(F)(F)F)cc2)cnc1C(=O)NCCO` [Compound 14, 3-amino-N-(2-hydroxyethyl)-5-{[4-(trifluoromethoxy)phenyl]sulfonyl}pyridine-2-carboxamide] showed an EC50 (CFTR G551D/ΔF508) of 5300 nM and an EC50 (G551D CFTR) of 11700 nM.

With `CC(O)(CNC(=O)c1ncc(S(=O)(=O)c2ccc(OC(F)(F)F)cc2)cc1N)C(F)(F)F` (stereo not shown) [Compound 2, 3-amino-N-(3,3,3-trifluoro-2-hydroxy-2-methylpropyl)-5-{[4-(trifluoromethoxy)phenyl]sulfonyl}pyridine-2-carboxamide] the EC50 (ΔF508 CFTR) was 70 nM.

Compound `Nc1cc(S(=O)(=O)c2ccc(OC(F)(F)F)cc2)cnc1C(=O)NC[C@H](O)C(F)(F)F` [Compound 26, 3-amino-N-[(2S)-3,3,3-trifluoro-2-hydroxypropyl]-5-{[4-(trifluoromethoxy)phenyl]sulfonyl}pyridine-2-carboxamide] has an EC50 (G551D CFTR) of 1230 nM.

`Nc1cc(S(=O)(=O)c2ccc(OC(F)(F)F)cc2)cnc1C(=O)NCC(O)COCC1CC1` (stereo not shown) [Compound 31, 3-amino-N-[3-(cyclopropylmethoxy)-2-hydroxypropyl]-5-{[4-(trifluoromethoxy)phenyl]sulfonyl}pyridine-2-carboxamide] was tested, and the EC50 (CFTR G551D/ΔF508) was 632 nM and the EC50 (G551D CFTR) was 824 nM.

`Nc1cc(S(=O)(=O)c2ccc(OC(F)(F)F)cc2)cnc1C(=O)NC[C@@H](O)C(F)(F)F` [Compound 37, 3-amino-N-[(2R)-3,3,3-trifluoro-2-hydroxypropyl]-5-{[4-(trifluoromethoxy)phenyl]sulfonyl}pyridine-2-carboxamide] gave an EC50 (ΔF508 CFTR) of 10.4 nM and an EC50 (CFTR G551D/ΔF508) of 232 nM.

In the case of `CC(C)(O)CNC(=O)c1ncc(S(=O)(=O)c2ccc(OC(F)(F)F)cc2)cc1N` [Compound 1, 3-amino-N-(2-hydroxy-2-methylpropyl)-5-{[4-(trifluoromethoxy)phenyl]sulfonyl}pyridine-2-carboxamide], the EC50 (ΔF508 CFTR) is reported as 180 nM and the EC50 (G551D CFTR) is reported as 645 nM.

Compound `Nc1cc(S(=O)(=O)c2ccc(OC(F)(F)F)cc2)cnc1C(=O)NCC(O)C(F)(F)F` (stereo not shown) [Compound 6, 3-amino-N-(3,3,3-trifluoro-2-hydroxypropyl)-5-{[4-(trifluoromethoxy)phenyl]sulfonyl}pyridine-2-carboxamide] has an EC50 (G551D CFTR) of 443 nM.

`C[C@H](O)CNC(=O)c1ncc(S(=O)(=O)c2ccc(C(F)(F)F)cc2)cc1N` [Compound 100, 3-amino-N-[(2S)-2-hydroxypropyl]-5-{[4-(trifluoromethyl)phenyl]sulfonyl}pyridine-2-carboxamide] showed an EC50 (CFTR G551D/ΔF508) of 2380 nM and an EC50 (G551D CFTR) of 1190 nM.

Work on `COC[C@H](O)CNC(=O)c1ncc(S(=O)(=O)c2ccc(C(F)(F)F)cc2)cc1N` [Compound 70, 3-amino-N-[(2R)-2-hydroxy-3-methoxypropyl]-5-{[4-(trifluoromethyl)phenyl]sulfonyl}pyridine-2-carboxamide] yielded an EC50 (CFTR G551D/ΔF508) of 3520 nM and an EC50 (G551D CFTR) of 622 nM.

Work on `Nc1cc(S(=O)(=O)c2ccc(F)cc2)cnc1C(=O)NC[C@@H](O)C(F)(F)F` [Compound 36, 3-amino-5-[(4-fluorophenyl)sulfonyl]-N-[(2R)-3,3,3-trifluoro-2-hydroxypropyl]pyridine-2-carboxamide] yielded an EC50 (ΔF508 CFTR) of 63.2 nM, an EC50 (CFTR G551D/ΔF508) of 1010 nM and an EC50 (G551D CFTR) of 735 nM.

`C[C@H](O)CNC(=O)c1ncc(S(=O)(=O)c2ccc(OC(F)(F)F)cc2)cc1N` [Compound 21, 3-amino-N-[(2S)-2-hydroxypropyl]-5-{[4-(trifluoromethoxy)phenyl]sulfonyl}pyridine-2-carboxamide] showed an EC50 (CFTR G551D/ΔF508) of 847 nM and an EC50 (G551D CFTR) of 1630 nM.

In the case of `Nc1cc(S(=O)(=O)c2ccc(OC(F)(F)F)cc2)cnc1C(=O)N1CC(F)(F)C1` [Compound 40, (3-amino-5-{[4-(trifluoromethoxy)phenyl]sulfonyl}pyridin-2-yl)(3,3-difluoroazetidin-1-yl)methanone], the EC50 (CFTR G551D/ΔF508) is reported as 443 nM.

`Nc1cc(S(=O)(=O)c2ccc(F)cc2)cnc1C(=O)NC[C@H](O)C(F)(F)F` [Compound 25, 3-amino-5-[(4-fluorophenyl)sulfonyl]-N-[(2S)-3,3,3-trifluoro-2-hydroxypropyl]pyridine-2-carboxamide] gave an EC50 (G551D CFTR) of 1200 nM.
